Reference: PubChem BioAssay AID2060507 (Molecular Pharmacology Branch, DTP, NCI, 2025)
Values joined by “and” are separate entries in the source; they are usually repeats but may differ in a detail not shown here. Equal values may be shown once.

Test system: 519858-162-T-J1-PDC complex spheroid viability
Test: Anticancer human tumor 519858-162-T-J1-PDC patient-derived colon adenocarcinoma cell line growth inhibition [GQUAD]
Conditions: for viability, T/C: stronger effect = lower value; active = viability on the fitted dose curve at most 10% of control; inactive = the rest
Excerpt: DNA G-quadruplex Stabilizer Agents in Combinations in Complex Spheroids
A high-throughput screen of multi-cell type tumor spheroids was designed to identify active combinations of DNA G-quadruplex stabilizer agents and targeted small molecules. Complex spheroids include a stromal component modeled by human endothelial cells (HUVEC) and fibroblasts modeled by human mesenchymal stem cells (MSCs). The concentration ranges selected for each drug and investigational agent were based upon clinically achievable concentrations if the clinical Cmax of the agent was known.
Compounds. The drugs and investigational agents: pidnarulex (CX-5461; NSC782164), APTO-253 (NSC789042), BRACO-19 (NSC847499), peposertib (NSC802822), ceralasertib (NSC780249), elimusertib (NSC800525), camonsertib (NSC841442), AZD-1390 (NSC803789), olaparib (NSC753686), talazoparib (NSC767125), ART-558 (NSC835418), sotorasib (NSC818433), MRTX-1133 (NSC836407), SN-38 (NSC673596), topotecan (NSC609699), etoposide (NSC141540), doxorubicin (NSC123127), gemcitabine (NSC613327), 5-fluorouracil (NSC19893), paclitaxel (NSC125973), vemurafenib (NSC761431), panobinostat (NSC761190), R-306465 (JNJ-16241199; NSC773264), adavosertib (NSC754352), TP-3654 (NSC805149), carboplatin (NSC241240), KSQ-4279 (NSC840948), and staurosporine (NSC755774) were obtained from the National Cancer Institute (NCI) Developmental Therapeutics Program Chemical Repository (34). The FDA-approved anticancer drug set is available from the NCI Developmental Therapeutics Program. […] The stock solutions were prepared in dimethyl sulfoxide (DMSO, Sigma-Aldrich, St. Louis, MO, cat. D2650) at 800-fold the tested concentration and stored at -70 degrees C prior to their use. All drugs and investigational agents were tested over a range starting from a high concentration at or near the clinical Cmax and decreasing in half-log increments. If the clinical Cmax for an agent had not been determined, the highest concentration tested was 10 microM.
2.3 Cell Culture. All cells were maintained in an incubator at 37 degrees C and 5% CO2 with 95% humidity. The PDC lines were cultured according to standard operating procedures established by the NCI PDMR. All PDCs were thawed and cultured in Matrigel-coated flasks prepared with a working solution of 1X Ham's F-12 nutrient mix, without supplementation (Invitrogen, cat. 11765054), 100 U/mL penicillin-streptomycin (Invitrogen, cat. 15140122), and 2.5% Matrigel (Corning Inc., cat. 354248) for the first three passages. The 857933-349-R-J2-PDC line was cultured in 6C/Colon 1B media, which includes advanced DMEM/F-12 (Thermo Fisher Scientific, cat. 12634028), 10 mM HEPES (Thermo Fisher Scientific, cat. 15630080), 1X GlutaMAX supplement (Thermo Fisher Scientific, cat. 35050061), 0.1 mg/mL primocin (InvivoGen, cat. ant-pm-2), 10% defined fetal bovine serum, heat inactivated (HyClone Laboratories Inc., cat. SH30070.03HI), 50% L-WRN conditioned media (ATCC, cat. CRL-3276), 1.25 mM N-Acetyl-L-cysteine (Sigma-Aldrich, cat. A9165), 10 mM nicotinamide (Sigma-Aldrich, cat. N0636), 1X B-27 supplement (Thermo Fisher Scientific, cat. 17504044), 1X N-2 supplement (Thermo Fisher Scientific, cat. 17502048), 10 microM Y-27632 dihydrochloride (Tocris Bioscience, cat. 1254), and 50 ng/mL human EGF recombinant protein (Thermo Fisher Scientific, cat. PHG0311). The 485176-168-R4-J1-PDC line was cultured in Panc media, which includes all 6C/Colon 1B media components plus 100 ng/mL human FGF-10 (Thermo Fisher Scientific, cat. 100-26), 500 nM SB-431542 (Selleckchem, cat. S1067), and gastrin (Tocris, cat. 3006).
[…]

[1] = curve of first compound, second compound 0.0316 µM
[2] = curve of first compound, second compound 0.1 µM
[3] = curve of first compound, second compound 0.316 µM
[4] = curve of first compound, second compound 1 µM
[5] = curve of first compound, second compound 3.16 µM
[6] = curve of first compound, second compound 10 µM
[7] = second compound 0.0316 µM, first compound 0.0316 µM
[8] = second compound 0.0316 µM, first compound 0.316 µM
[9] = second compound 0.1 µM, first compound 0.0316 µM
[10] = second compound 0.1 µM, first compound 0.316 µM
[11] = second compound 0.316 µM, first compound 0.0316 µM
[12] = second compound 0.316 µM, first compound 0.316 µM
[13] = second compound 1 µM, first compound 0.0316 µM
[14] = second compound 1 µM, first compound 0.316 µM
[15] = second compound 3.16 µM, first compound 0.0316 µM
[16] = second compound 3.16 µM, first compound 0.316 µM
[17] = second compound 10 µM, first compound 0.0316 µM
[18] = second compound 10 µM, first compound 0.316 µM
[19] = second compound 0.0316 µM, first compound 0.000999 µM
[20] = second compound 0.0316 µM, first compound 0.00316 µM
[21] = second compound 0.0316 µM, first compound 0.00999 µM
[22] = second compound 0.0316 µM, first compound 0.0999 µM
[23] = second compound 0.1 µM, first compound 0.000999 µM
[24] = second compound 0.1 µM, first compound 0.00316 µM
[25] = second compound 0.1 µM, first compound 0.00999 µM
[26] = second compound 0.1 µM, first compound 0.0999 µM
[27] = second compound 0.316 µM, first compound 0.000999 µM
[28] = second compound 0.316 µM, first compound 0.00316 µM
[29] = second compound 0.316 µM, first compound 0.00999 µM
[30] = second compound 0.316 µM, first compound 0.0999 µM
[31] = second compound 1 µM, first compound 0.000999 µM
[32] = second compound 1 µM, first compound 0.00316 µM
[33] = second compound 1 µM, first compound 0.00999 µM
[34] = second compound 1 µM, first compound 0.0999 µM
[35] = second compound 3.16 µM, first compound 0.000999 µM
[36] = second compound 3.16 µM, first compound 0.00316 µM
[37] = second compound 3.16 µM, first compound 0.00999 µM
[38] = second compound 3.16 µM, first compound 0.0999 µM
[39] = second compound 10 µM, first compound 0.000999 µM
[40] = second compound 10 µM, first compound 0.00316 µM
[41] = second compound 10 µM, first compound 0.00999 µM
[42] = second compound 10 µM, first compound 0.0999 µM
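Note: spheroids exposed to compounds for 7 days.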

COc1ccc([C@@H](O)c2cc(-c3ncnc4cc(N5CCOCC5)ccc34)c(F)cc2Cl)nn1 + Cc1cnc(CNC(=O)c2c(=O)c3ccc(N4CCCN(C)CC4)nc3n3c2sc2ccccc23)cn1
inactive: viability, T/C [7] 72.4% | viability, T/C (second compound 0.0316 µM, first compound 0.1 µM) 102% | viability, T/C [8] 81.6% | viability, T/C (second compound 0.0316 µM, first compound 1 µM) 99.3% | viability, T/C (second compound 0.0316 µM, first compound 3.16 µM) 48.9% | viability, T/C (second compound 0.0316 µM, first compound 10 µM) 53% | viability, T/C [9] 75.6% | viability, T/C (second compound 0.1 µM, first compound 0.1 µM) 70.5% | viability, T/C [10] 62.8% | viability, T/C (second compound 0.1 µM, first compound 1 µM) 50.8% | viability, T/C (second compound 0.1 µM, first compound 3.16 µM) 55.1% | viability, T/C (second compound 0.1 µM, first compound 10 µM) 44.8% | viability, T/C [11] 109% | viability, T/C (second compound 0.316 µM, first compound 0.1 µM) 72.9% | viability, T/C [12] 80% | viability, T/C (second compound 0.316 µM, first compound 1 µM) 56.1% | viability, T/C (second compound 0.316 µM, first compound 3.16 µM) 41.7% | viability, T/C (second compound 0.316 µM, first compound 10 µM) 52% | viability, T/C [13] 56.7% | viability, T/C (second compound 1 µM, first compound 0.1 µM) 49.9% | viability, T/C [14] 48.1% | viability, T/C (second compound 1 µM, first compound 1 µM) 47.9% | viability, T/C (second compound 1 µM, first compound 3.16 µM) 67.3% | viability, T/C (second compound 1 µM, first compound 10 µM) 41% | viability, T/C [15] 58.4% | viability, T/C (second compound 3.16 µM, first compound 0.1 µM) 62.2% | viability, T/C [16] 46.9% | viability, T/C (second compound 3.16 µM, first compound 1 µM) 30% | viability, T/C (second compound 3.16 µM, first compound 3.16 µM) 34.8% | viability, T/C (second compound 3.16 µM, first compound 10 µM) 45.9% | viability, T/C [17] 36.6% | viability, T/C (second compound 10 µM, first compound 0.1 µM) 33.5% | viability, T/C [18] 49.3% | viability, T/C (second compound 10 µM, first compound 1 µM) 35.2% | viability, T/C (second compound 10 µM, first compound 3.16 µM) 47.7% | viability, T/C (second compound 10 µM, first compound 10 µM) 37.7%
9.07 µM: IC50 [4]
3.66 µM: IC50 [2]
< 0.0316 µM: IC50 [6]
0.243 µM: IC50 [5]
4.18 µM: IC50 [3]
10 µM: IC50 [1]

CC[C@@]1(O)C(=O)OCc2c1cc1n(c2=O)Cc2cc3c(CN(C)C)c(O)ccc3nc2-1 + Cc1cnc(CNC(=O)c2c(=O)c3ccc(N4CCCN(C)CC4)nc3n3c2sc2ccccc23)cn1
> 0.316 µM: IC50 [1] | IC50 [2] | IC50 [3] | IC50 [4] | IC50 [5]
inactive: viability, T/C [19] 88% | viability, T/C [20] 91% | viability, T/C [21] 89.7% | viability, T/C [7] 67.7% | viability, T/C [22] 78% | viability, T/C [8] 83.7% | viability, T/C [23] 93.8% | viability, T/C [24] 89.3% | viability, T/C [25] 84.5% | viability, T/C [9] 79.5% | viability, T/C [26] 70.9% | viability, T/C [10] 59.4% | viability, T/C [27] 90.1% | viability, T/C [28] 86.8% | viability, T/C [29] 96.5% | viability, T/C [11] 78.8% | viability, T/C [30] 80.7% | viability, T/C [12] 74.6% | viability, T/C [31] 66.1% | viability, T/C [32] 58.9% | viability, T/C [33] 72.8% | viability, T/C [13] 49.7% | viability, T/C [34] 59% | viability, T/C [14] 62.9% | viability, T/C [35] 67.2% | viability, T/C [36] 43.9% | viability, T/C [37] 75.9% | viability, T/C [15] 43% | viability, T/C [38] 38.2% | viability, T/C [16] 64.4% | viability, T/C [39] 58.5% | viability, T/C [40] 34.9% | viability, T/C [41] 40% | viability, T/C [17] 41.2% | viability, T/C [42] 37.8% | viability, T/C [18] 37.6%
< 0.000999 µM: IC50 [6]

CC[C@@]1(O)C(=O)OCc2c1cc1n(c2=O)Cc2cc3c(CN(C)C)c(O)ccc3nc2-1 + Cc1[nH]c2ccc(F)cc2c1-c1nc2c3cccnc3c3ncccc3c2[nH]1
> 0.316 µM: IC50 [1] | IC50 [2] | IC50 [3] | IC50 [4] | IC50 [6]
inactive: viability, T/C [19] 119% | viability, T/C [20] 106% | viability, T/C [21] 103% | viability, T/C [7] 76.5% | viability, T/C [22] 72.1% | viability, T/C [8] 88.9% | viability, T/C [23] 86% | viability, T/C [24] 90.9% | viability, T/C [25] 94.3% | viability, T/C [9] 88.9% | viability, T/C [26] 73.2% | viability, T/C [10] 75.5% | viability, T/C [27] 58.7% | viability, T/C [28] 97.1% | viability, T/C [29] 99.3% | viability, T/C [11] 93.8% | viability, T/C [30] 97.2% | viability, T/C [12] 69.4% | viability, T/C [31] 86% | viability, T/C [32] 60.9% | viability, T/C [33] 85.1% | viability, T/C [13] 104% | viability, T/C [34] 69.7% | viability, T/C [14] 75.9% | viability, T/C [35] 56.4% | viability, T/C [36] 55.6% | viability, T/C [37] 46.5% | viability, T/C [15] 48.6% | viability, T/C [38] 78.1% | viability, T/C [16] 77.1% | viability, T/C [39] 60% | viability, T/C [40] 58.3% | viability, T/C [41] 50.7% | viability, T/C [17] 60.9% | viability, T/C [42] 85.3% | viability, T/C [18] 60%
0.000999 µM: IC50 [5]

COc1cccc2c1C(=O)c1c(O)c3c(c(O)c1C2=O)CC(O)(C(=O)CO)CC3OC1CC(N)C(O)C(C)O1 (stereo not drawn)
> 10 µM and 5.66 µM: IC50 (curve of compound)
inactive: viability, T/C (compound 0.0316 µM) 72.4% and 79.2% and 88.8% | viability, T/C (compound 0.1 µM) 87.7% and 101% and 80.3% | viability, T/C (compound 0.316 µM) 96.6% and 91.6% and 71.9% | viability, T/C (compound 1 µM) 104% and 73.1% and 83.7% | viability, T/C (compound 3.16 µM) 68.2% and 95.1% and 53.9% | viability, T/C (compound 10 µM) 82.8% and 70.4% and 46.2%
